The numbers were not newly measured in patent publication US20250195680A1, “CANCER TREATMENT WITH ANTI-CLAUDIN 18.2 ADC” (priority 2023, published 2025), which cites them from elsewhere.

For this data set, the system named is gastric cancer. The conditions noted are these: combined with CAPOX or mFOLFOX6 vs chemotherapy alone.

As for “zolbetuximab: anti-CLDN18.2 monoclonal antibody”, the “efficacy in treating gastric cancer” value was “effective in treating gastric cancer”.
